# Activity calls are given as the source filed them. The rule behind the calls is not given here.
# Key:
# CHO [1] = experiment: (§1) Inhibition of BACE1 in CHO cells stably expressing amyloid precursor protein after 24 hrs by Western blot analysis; assay type: cell-based; details: Cricetulus griseus
# [2] = as §1; assay type: cell-based, Cricetulus griseus
# CHO [3] = experiment: Inhibition of gamma secretase in CHO cells stably expressing amyloid precursor protein assessed as reduction in Abeta42 levels at 10 uM by ELISA relative to control; assay type: cell-based; details: Cricetulus griseus
# CHO [4] = experiment: Cytotoxicity against CHO cells stably expressing amyloid precursor protein at 2.5 to 10 uM after 24 hrs by MTT assay; assay type: cell-based, Cricetulus griseus; details: chinese hamster
# CHO [5] = experiment: Inhibition of BACE1 in CHO cells stably expressing amyloid precursor protein assessed as sAPPbeta level at 10 uM after 24 hrs by Western blot analysis relative to control; assay type: cell-based; details: Cricetulus griseus
# [6] = Inhibition of gamma secretase in CHO cells stably expressing amyloid precursor protein assessed as reduction in Abeta42 levels by ELISA; assay type: cell-based; details: Cricetulus griseus
# CHO [7] = experiment: (§2) Inhibition of BACE1 in CHO cells stably expressing amyloid precursor protein assessed as reduction in sAPPbeta expression after 24 hrs by Western blot analysis; assay type: cell-based; details: Cricetulus griseus
# [8] = as §2; assay type: cell-based; details: Cricetulus griseus
# Mus musculus [9] = experiment: Memory improvement effect in ICR mouse model of scopolamine-induced memory impairment assessed as discrimination index at 2.5 mg/kg, po administered for 7 days followed by scopolamine challenge 30 mins prior to test by object recognition test (reference value: 60.14 +/- 2.1%); assay type: functional
# Mus musculus [10] = experiment: Cognitive enhancing effect in ICR mouse model of scopolamine-Induced memory impairment assessed as escape latency time at 2.5 mg/kg, po administered for 7 days and measured after 60 mins at 5th day of training session by Morris water maze test (reference value: 77.5 +/- 6.6 secs); assay type: functional
# Mus musculus [11] = experiment: Cognitive enhancing effect in ICR mouse model of scopolamine-Induced memory impairment assessed as escape latency time at 5 mg/kg, po administered for 7 days and measured after 60 mins at 5th day of training session by Morris water maze test (reference value: 77.5 +/- 6.6 secs); assay type: functional
# Mus musculus [12] = experiment: Neuroprotective activity against scopolamine-induced memory impairment in ICR mouse assessed as increase in hippocampal phosphorylated CREB level at 5 mg/kg, po administered for 7 days by Western blot analysis; assay type: functional, organism-based
# Mus musculus [13] = experiment: Suppression of AChE in ICR mouse model of scopolamine-induced memory impairment assessed as reduction in protein activity in hippocampus at 5 mg/kg,po administered for 7 days by Ellman's method; assay type: functional, organism-based
# Mus musculus [14] = experiment: Neuroprotective activity against scopolamine-induced memory impairment in ICR mouse assessed as increase in hippocampal phosphorylated AKT level at 2.5 to 5 mg/kg, po administered for 7 days by Western blot analysis; assay type: functional, organism-based
# Mus musculus [15] = experiment: Neuroprotective activity against scopolamine-induced memory impairment in ICR mouse assessed as increase in cortical phosphorylated CREB level at 1.25 to 2.5 mg/kg, po administered for 7 days by Western blot analysis; assay type: functional, organism-based
# Mus musculus [16] = experiment: Cognitive enhancing effect in ICR mouse model of scopolamine-Induced memory impairment assessed as time spent in target quadrant at 1.25 mg/kg, po administered for 7 days and measured on day 6 by Morris water maze test (reference value: 14.48 +/- 1.6 secs); assay type: functional
# Mus musculus [17] = experiment: Cognitive enhancing effect in ICR mouse model of scopolamine-induced short-term memory impairment assessed as increase in spontaneous alteration at 5 mg/kg, po administered for 7 days followed by scopolamine challenge 30 mins prior to test by Y-maze test; assay type: functional
# Mus musculus [18] = experiment: Cognitive enhancing effect in po dosed ICR mouse model of scopolamine-Induced memory impairment assessed as increase in time spent in target quadrant administered for 7 days and measured on day 6 by Morris water maze test; assay type: functional, organism-based
# Mus musculus [19] = experiment: Cognitive enhancing effect in ICR mouse model of scopolamine-Induced memory impairment assessed as escape latency time at 5 mg/kg, po administered for 7 days and measured after 60 mins at first day of training session by Morris water maze test (reference value: 84.5 +/- 4.6 secs); assay type: functional
# Mus musculus [20] = experiment: Memory improvement effect in ICR mouse model of scopolamine-induced memory impairment assessed as discrimination index at 5 mg/kg, po administered for 7 days followed by scopolamine challenge 30 mins prior to test by object recognition test (reference value: 60.14 +/- 2.1%); assay type: functional
# Mus musculus [21] = experiment: Cognitive enhancing effect in ICR mouse model of scopolamine-Induced memory impairment assessed as escape latency time at 2.5 mg/kg, po administered for 7 days and measured after 60 mins at first day of training session by Morris water maze test (reference value: 84.5 +/- 4.6 secs); assay type: functional
# Mus musculus [22] = experiment: Cognitive enhancing effect in ICR mouse model of scopolamine-Induced memory impairment assessed as time spent in target quadrant at 5 mg/kg, po administered for 7 days and measured on day 6 by Morris water maze test (reference value: 14.48 +/- 1.6 secs); assay type: functional
# Mus musculus [23] = experiment: Reversal of scopolamine-induced amnesic effect in ICR mouse assessed as step-through latecy time at 5 mg/kg, po administered for 7 days followed by scopolamine challenge 30 mins prior to test by passive avoidance test (reference value: 10.80 +/- 4.1 secs); assay type: functional
# Mus musculus [24] = experiment: Neuroprotective activity against scopolamine-induced memory impairment in ICR mouse assessed as increase in cortical phosphorylated AKT level at 5 mg/kg, po administered for 7 days by Western blot analysis; assay type: functional, organism-based
# Mus musculus [25] = experiment: Reversal of scopolamine-induced amnesic effect in ICR mouse assessed as step-through latecy time at 1.25 mg/kg, po administered for 7 days followed by scopolamine challenge 30 mins prior to test by passive avoidance test (reference value: 10.80 +/- 4.1 secs); assay type: functional
# Mus musculus [26] = experiment: Reversal of scopolamine-induced amnesic effect in ICR mouse assessed as step-through latecy time at 2.5 mg/kg, po administered for 7 days followed by scopolamine challenge 30 mins prior to test by passive avoidance test (reference value: 10.80 +/- 4.1 secs); assay type: functional
# Mus musculus [27] = experiment: Cognitive enhancing effect in ICR mouse model of scopolamine-Induced memory impairment assessed as time spent in target quadrant at 2.5 mg/kg, po administered for 7 days and measured on day 6 by Morris water maze test (reference value: 14.48 +/- 1.6 secs); assay type: functional
# Mus musculus [28] = experiment: Neuroprotective activity against scopolamine-induced memory impairment in ICR mouse assessed as increase in cortical phosphorylated ERK level at 1.25 to 5 mg/kg, po administered for 7 days by Western blot analysis; assay type: functional, organism-based
# Mus musculus [29] = experiment: Neuroprotective activity against scopolamine-induced memory impairment in ICR mouse assessed as increase in hippocampal phosphorylated ERK level at 2.5 to 5 mg/kg, po administered for 7 days by Western blot analysis; assay type: functional, organism-based
structure (smiles),measurement,setting,value
COC(C)(C)[C@H]1O[C@@]23O[C@@H]1C[C@@H](C)[C@@H]2[C@@]1(C)CC[C@@]24C[C@@]25CC[C@H](O[C@@H]2OC[C@@H](O)[C@H](O)[C@H]2O)C(C)(C)[C@@H]5CC=C4[C@]1(C)[C@H]3O,inhibition,CHO [1],Dose-dependent effect
same,IC50,[2],8.1 µM
same,inhibition,CHO [3],48.9%
same,Activity,CHO [4],Non-Toxic
same,inhibition,CHO [5],20%
same,IC50,[6],10.1 µM
same,inhibition,CHO [7],Dose-dependent effect
same,IC50,[8],7.1 µM
C[C@@H]1C[C@H]([C@@H](O)C(C)(C)O)O[C@H]2C(=O)[C@@]3(C)C4=C(CC[C@]3(C)[C@@H]12)C[C@]12CC[C@H](O1)C(C)(C)[C@@H]2CC4,inhibition,CHO [1],Dose-dependent effect
same,IC50,[2],6.2 µM
same,inhibition,CHO [3],80.6%
same,Activity,CHO [4],Non-Toxic
same,inhibition,CHO [5],20%
same,IC50,[6],6.2 µM
same,inhibition,CHO [7],Dose-dependent effect
same,IC50,[8],4.3 µM
CC(=O)O[C@H]([C@H]1C[C@@H](C)[C@H]2[C@@](O)(O1)[C@H](O)[C@@]1(C)C3=CC[C@H]4C(C)(C)[C@@H](O[C@@H]5OC[C@@H](O)[C@H](O)[C@H]5O)CC[C@@]45C[C@@]35CC[C@]21C)C(C)(C)O,inhibition,CHO [1],Dose-dependent effect
same,IC50,[2],7.1 µM
same,Activity,Mus musculus [9],64.29%
same,Time,Mus musculus [10],49.4 s
same,Time,Mus musculus [11],48.1 s
same,Activity,Mus musculus [12],Active
same,Activity,Mus musculus [13],Active
same,Activity,Mus musculus [14],Active
same,Activity,Mus musculus [15],Active
same,inhibition,CHO [3],61.7%
same,Time,Mus musculus [16],18.43 s
same,Activity,Mus musculus [17],11.6%
same,Activity,CHO [4],Non-Toxic
same,Activity,Mus musculus [18],Dose-dependent effect
same,Time,Mus musculus [19],76 s
same,inhibition,CHO [5],20%
same,Activity,Mus musculus [20],68%
same,Time,Mus musculus [21],80.7 s
same,Time,Mus musculus [22],25.86 s
same,Time,Mus musculus [23],46.9 s
same,Activity,Mus musculus [24],Active
same,Time,Mus musculus [25],14.5 s
same,Time,Mus musculus [26],28.8 s
same,Time,Mus musculus [27],20.4 s
same,IC50,[6],8.1 µM
same,inhibition,CHO [7],Dose-dependent effect
same,IC50,[8],6.1 µM
same,Activity,Mus musculus [28],Active
same,Activity,Mus musculus [29],Active
CC(=O)O[C@@H]1[C@H](O)[C@@H](O)[C@H](O[C@H]2CC[C@]34C[C@]35CC[C@]3(C)[C@H]6[C@H](C)C[C@H]([C@@H](OC(C)=O)C(C)(C)O)O[C@@]6(O)[C@H](O)[C@@]3(C)C5=CC[C@H]4C2(C)C)O[C@@H]1CO,inhibition,CHO [1],Dose-dependent effect
same,IC50,[2],7.8 µM
same,inhibition,CHO [3],34.7%
same,Activity,CHO [4],Non-Toxic
same,IC50,[6],14.4 µM
same,inhibition,CHO [7],Dose-dependent effect
same,IC50,[8],8.3 µM
